Experimental data as given in patent US10035760B2, “Inhibitors of human immunodeficiency virus replication” (priority 2013, dated 2018).
Read-outs that look alike come from different tables or passages of the source.

Test system: recombinant NL4-3 virus (Renilla luciferase) in MT-2 cells
Assay: HIV cell culture assay (antiviral activity, luciferase readout in infected MT-2 cells)
Type: cell-based
Conditions: Renilla
Summary of the method: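 Nef-deleted NL4-3 carrying Renilla luciferase, produced by 293T transfection, used to infect MT-2 cells for 4–5 days with serial compound dilutions. Live-cell luciferase signal read as infection marker; EC50 from exponential median-effect equation.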

[1] = NL43, read-out: Activity, antiviral activity class, recombinant NL4-3 Renilla luciferase virus in MT-2 cells
[2] = NL43, recombinant NL4-3 Renilla luciferase virus in MT-2 cells

| Structure (SMILES) | EC50 [1] [µM] | EC50 [2] [µM] |
| --- | --- | --- |
| Cc1nc2cc(N(C)C(=O)[C@H](Cc3ccccc3)NC(=O)NS(=O)(=O)c3ccccc3C)ccc2s1 [Example CA-87, (S)—N-methyl-N-(2-methylbenzo[d]thiazol-5-yl)-3-phenyl-2-(3-(o-tolylsulfonyl)ureido)propanamide] | 0.1 to 1 | – |
| Cc1ccccc1S(=O)(=O)NC(=O)N[C@@H](Cc1ccccc1)C(=O)N(C)c1cccc(F)c1 [Example 168, (S)—N-(3-fluorophenyl)-N-methyl-3-phenyl-2-(3-(o-tolylsulfonyl)ureido)propanamide] | 0.1 to 1 | – |
| CCN(C(=O)[C@H](Cc1ccccc1)NC(=O)NS(=O)(=O)c1ccccc1[N+](=O)[O-])c1ccc(OC)cc1 [Example 113, (S)—N-ethyl-N-(4-methoxyphenyl)-2-(3-((2-nitrophenyl)sulfonyl)ureido)-3-phenylpropanamide] | < 0.1 | – |
| Cc1ccccc1S(=O)(=O)NC(=O)N[C@@H](Cc1ccc(-c2ccccc2)cc1)C(=O)N(C)c1ccc2c(c1)OCO2 [Example 69, (S)-3-([1,1′-biphenyl]-4-yl)-N-(benzo[d][1,3]dioxol-5-yl)-N-methyl-2-(3-(o-tolylsulfonyl)ureido)propanamide] | 10 to 100 | – |
| CN(C(=O)[C@H](Cc1ccccc1)NC(=O)NS(=O)(=O)c1cccs1)c1ccc2c(c1)OCO2 [Example 31, (S)—N-(benzo[d][1,3]dioxol-5-yl)-N-methyl-3-phenyl-2-(3-(thiophen-2-ylsulfonyl)ureido)propanamide] | 0.1 to 1 | – |
| Cc1nn(C)c(Cl)c1S(=O)(=O)NC(=O)N[C@@H](Cc1ccccc1)C(=O)N(C)c1ccc2c(c1)OCO2 [Example 33, (S)—N-(benzo[d][1,3]dioxol-5-yl)-2-(3-((5-chloro-1,3-dimethyl-1H-pyrazol-4-yl)sulfonyl)ureido)-N-methyl-3-phenylpropanamide] | 0.1 to 1 | 0.21 |
| CN(C(=O)[C@H](Cc1ccccc1)NC(=O)NS(=O)(=O)Cc1ccccc1Cl)c1ccc2c(c1)OCO2 [Example 101, (S)—N-(benzo[d][1,3]dioxol-5-yl)-2-(3-((2-chlorobenzyl)sulfonyl)ureido)-N-methyl-3-phenylpropanamide] | 0.1 to 1 | – |
| Cc1ccccc1S(=O)(=O)NC(=O)N[C@@H](Cc1ccccc1Br)C(=O)N(C)c1ccc2c(c1)OCO2 [Example 76, (S)—N-(benzo[d][1,3]dioxol-5-yl)-3-(2-bromophenyl)-N-methyl-2-(3-(o-tolylsulfonyl)ureido)propanamide] | 1 to 10 | – |
| COc1ccc(N(C)C(=O)[C@H](Cc2cc(F)cc(F)c2)NC(=O)NS(=O)(=O)c2ccccc2F)cc1 [Example 204, (S)-3-(3,5-difluorophenyl)-2-(3-((2-fluorophenyl)sulfonyl)ureido)-N-(4-methoxyphenyl)-N-methylpropanamide] | 0.1 to 1 | – |
| COc1ccc(N(C)C(=O)[C@H](Cc2cc(F)cc(F)c2)NC(=O)NS(=O)(=O)c2ccccc2C)cc1 [Example 205, (S)-3-(3,5-difluorophenyl)-N-(4-methoxyphenyl)-N-methyl-2-(3-(o-tolylsulfonyl)ureido)propanamide] | 0.1 to 1 | 0.11 |
| CN(C(=O)[C@H](Cc1ccccc1)NC(=O)NS(=O)(=O)c1c(Cl)cccc1Cl)c1ccc2c(c1)OCO2 [Example 100, (S)—N-(benzo[d][1,3]dioxol-5-yl)-2-(3-((2,6-dichlorophenyl)sulfonyl)ureido)-N-methyl-3-phenylpropanamide] | < 0.1 | – |
| Cc1ccccc1S(=O)(=O)NC(=O)N[C@@H](Cc1ccccc1)C(=O)N(C)c1ccc(O)c(NC=O)c1 [Example CA-90, (S)—N-(3-formamido-4-hydroxyphenyl)-N-methyl-3-phenyl-2-(3-(o-tolylsulfonyl)ureido)propanamide] | 1 to 10 | – |
| Cc1ccccc1N(C)C(=O)[C@H](Cc1ccccc1)NC(=O)NS(=O)(=O)c1ccccc1C [Example CA-69, (S)—N-methyl-3-phenyl-N-(o-tolyl)-2-(3-(o-tolylsulfonyl)ureido)propanamide] | 1 to 10 | – |
| CCN(C(=O)[C@H](Cc1ccccc1)NC(=O)NS(=O)(=O)c1cccc(-c2ccsc2)c1)c1ccc(OC)cc1 [Example 151, (S)—N-ethyl-N-(4-methoxyphenyl)-3-phenyl-2-(3-((3-(thiophen-3-yl)phenyl)sulfonyl)ureido)propanamide] | 0.1 to 1 | 0.11 |
| CCN(C(=O)[C@H](Cc1ccccc1)NC(=O)NS(=O)(=O)c1ccccc1Br)c1ccc(OC)cc1 [Example 201, (S)-2-(3-((2-bromophenyl)sulfonyl)ureido)-N-ethyl-N-(4-methoxyphenyl)-3-phenylpropanamide] | < 0.1 | – |
| Cc1ccccc1S(=O)(=O)NC(=O)N[C@@H](Cc1cc(F)cc(F)c1)C(=O)N(C)c1ccc(F)c(C(N)=O)c1 [Example CA-102, (S)-5-(3-(3,5-difluorophenyl)-N-methyl-2-(3-(o-tolylsulfonyl)ureido)propanamido)-2-fluorobenzamide] | 1 to 10 | 2.58 |
| CN(C(=O)[C@H](Cc1ccccc1)NC(=O)NS(=O)(=O)c1cccc(Cl)c1Cl)c1ccc2c(c1)OCO2 [Example 15, (S)—N-(benzo[d][1,3]dioxol-5-yl)-2-(3-((2,3-dichlorophenyl)sulfonyl)ureido)-N-methyl-3-phenylpropanamide] | < 0.1 | – |
| CCN(C(=O)[C@H](Cc1ccccc1)NC(=O)NS(=O)(=O)c1cccc(Cl)c1Cl)c1ccc(OC)cc1 [Example 119, (S)-2-(3-((2,3-dichlorophenyl)sulfonyl)ureido)-N-ethyl-N-(4-methoxyphenyl)-3-phenylpropanamide] | < 0.1 | – |
| Cc1ccccc1S(=O)(=O)NC(=O)N[C@@H](Cc1cccc2ccccc12)C(=O)N(C)c1ccc2c(c1)OCO2 [Example 83, (S)—N-(benzo[d][1,3]dioxol-5-yl)-N-methyl-3-(naphthalen-1-yl)-2-(3-(o-tolylsulfonyl)ureido)propanamide] | 1 to 10 | 4.28 |
| Cc1ccccc1S(=O)(=O)NC(=O)N[C@@H](Cc1ccccc1)C(=O)N(C)c1ccc2ncn(C)c2c1 [Example CA-73, (S)—N-methyl-N-(1-methyl-H-benzo[d]imidazol-6-yl)-3-phenyl-2-(3-(o-tolylsulfonyl)ureido)propanamide] | 0.1 to 1 | – |
| CCN(C(=O)[C@H](Cc1ccccc1)NC(=O)NS(=O)(=O)c1ccccc1C)c1ccc2c(c1)CCCO2 [Example CA-81, (S)—N-(chroman-6-yl)-N-ethyl-3-phenyl-2-(3-(o-tolylsulfonyl)ureido)propanamide] | < 0.1 | 0.04 |
| Cc1ccccc1S(=O)(=O)NC(=O)N[C@@H](Cc1ccccc1)C(=O)N(C)c1ccc(NC(=O)N(C)C)cc1 [Example CA-92, (S)—N-(4-(3,3-dimethylureido)phenyl)-N-methyl-3-phenyl-2-(3-(o-tolylsulfonyl)ureido)propanamide] | 1 to 10 | – |
| CN(C(=O)[C@H](Cc1ccccc1)NC(=O)NS(=O)(=O)Cc1ccccc1)c1ccc2c(c1)OCO2 [Example 10, (S)—N-(benzo[d][1,3]dioxol-5-yl)-2-(3-(benzylsulfonyl)ureido)-N-methyl-3-phenylpropanamide] | 0.1 to 1 | – |
| CCCc1cccc(S(=O)(=O)NC(=O)N[C@@H](Cc2ccccc2)C(=O)N(CC)c2ccc(OC)cc2)c1 [Example 142, (S)—N-ethyl-N-(4-methoxyphenyl)-3-phenyl-2-(3-((3-propylphenyl)sulfonyl)ureido)propanamide] | < 0.1 | 0.06 |
| COc1ccc(N(C)C(=O)[C@H](Cc2ccccc2)NC(=O)NS(=O)(=O)c2ccccc2)cc1 [Example 92] | 0.1 to 1 | – |
